Experimental data reported in patent US8940913B2, “Herbicides” (Syngenta Crop Protection, LLC, priority 2007, dated 2015).

Assays:
Type in all cases: in vivo
Lolium perenne (LOLPE) [1] = test: Post-emergence herbicidal activity, glasshouse pot test; settings: 360 h, rate 125 g/ha, evaluated 15 days later, 100=total damage to plant, 0=no damage to plant
Procedure: (§1) Monocotyledonous and dicotyledonous test plants were sown in standard soil in pots. After cultivation for one day (pre-emergence) or after 10 days cultivation (post-emergence) under controlled conditions in a glasshouse, the plants were sprayed with an aqueous spray solution derived from the formulation of the technical active ingredient in 0.6 ml acetone and 45 ml formulation solution containing 10.6% Emulsogen EL (Registry number 61791-12-6), 42.2% N-methylpyrrolidone, 42.2% dipropylene glycol monomethyl ether (Registry number 34590-94-8) and 0.2% X-77 (Registry number 11097-66-8). The test plants were then grown in a greenhouse under optimum conditions until, 15 days later for post-emergence and 20 days for pre-emergence, the test was evaluated (100=total damage to plant; 0=no damage to plant). Test Plants: Alopecurus myosuroides (ALOMY), Avena fatua (AVEFA), Lolium perenne (LOLPE), Setaria faberi (SETFA), Digitaria sanguinalis (DIGSA), Echinochloa crus-galli (ECHCG)

[2] = test system: Digitaria sanguinalis (DIGSA); test: as above; settings: 360 h, rate 125 g/ha, evaluated 15 days later, 100=total damage to plant, 0=no damage to plant
Procedure: as §1

Avena fatua (AVEFA) [3] = test: as above; settings: 360 h, rate 125 g/ha, evaluated 15 days later, 100=total damage to plant, 0=no damage to plant
Procedure: as §1

Setaria faberi (SETFA) [4] = test: as above; settings: 360 h, rate 125 g/ha, evaluated 15 days later, 100=total damage to plant, 0=no damage to plant
Procedure: as §1

[5] = test system: Alopecurus myosuroides (ALOMY); test: as above; settings: 360 h, rate 125 g/ha, evaluated 15 days later, 100=total damage to plant, 0=no damage to plant
Procedure: as §1

[6] = test system: Echinochloa crus-galli (ECHCG); test: as above; settings: 360 h, rate 125 g/ha, evaluated 15 days later, 100=total damage to plant, 0=no damage to plant
Procedure: as §1

Lolium perenne (LOLPE) [7] = test: Pre-emergence herbicidal activity, glasshouse pot test; settings: 480 h, rate 250 g/ha, evaluated 20 days later, 100=total damage to plant, 0=no damage to plant
Procedure: as §1

[8] = test system: Digitaria sanguinalis (DIGSA); test: as above; settings: 480 h, rate 250 g/ha, evaluated 20 days later, 100=total damage to plant, 0=no damage to plant
Procedure: as §1

Avena fatua (AVEFA) [9] = test: as above; settings: 480 h, rate 250 g/ha, evaluated 20 days later, 100=total damage to plant, 0=no damage to plant
Procedure: as §1

Setaria faberi (SETFA) [10] = test: as above; settings: 480 h, rate 250 g/ha, evaluated 20 days later, 100=total damage to plant, 0=no damage to plant
Procedure: as §1

[11] = test system: Alopecurus myosuroides (ALOMY); test: as above; settings: 480 h, rate 250 g/ha, evaluated 20 days later, 100=total damage to plant, 0=no damage to plant
Procedure: as §1

[12] = test system: Echinochloa crus-galli (ECHCG); test: as above; settings: 480 h, rate 250 g/ha, evaluated 20 days later, 100=total damage to plant, 0=no damage to plant
Procedure: as §1

| Compound | pest or weed control at 125 g/ha (Lolium perenne (LOLPE) [1]) | pest or weed control at 125 g/ha [2] | pest or weed control at 125 g/ha (Avena fatua (AVEFA) [3]) | pest or weed control at 125 g/ha (Setaria faberi (SETFA) [4]) | pest or weed control at 125 g/ha [5] | pest or weed control at 125 g/ha [6] | pest or weed control at 250 g/ha (Lolium perenne (LOLPE) [7]) | pest or weed control at 250 g/ha [8] | pest or weed control at 250 g/ha (Avena fatua (AVEFA) [9]) | pest or weed control at 250 g/ha (Setaria faberi (SETFA) [10]) | pest or weed control at 250 g/ha [11] | pest or weed control at 250 g/ha [12] |
| --- | --- | --- | --- | --- | --- | --- | --- | --- | --- | --- | --- | --- |
| CCc1ccc(-c2ccc(Cl)nc2Cl)cc1C1=C(O)[C@H]2[C@@H](C1=O)[C@@H]1CC[C@H]2O1 [Compound T21] | 40% | 100% | 80% | 90% | 80% | 100% | 60% | 90% | 50% | 100% | 50% | 100% |
| CCc1ccc(-c2ccc(Cl)cc2Cl)cc1C1=C(O)[C@H]2[C@@H](C1=O)[C@]1(C)CC[C@@]2(C)O1 [Compound T24] | 60% | 100% | 90% | 100% | 90% | 100% | 30% | 100% | 30% | 100% | 10% | 100% |
| Cc1cc(-c2ccc(C(F)(F)F)cc2)cc(C)c1C1C(=O)[C@@H]2[C@H](C1=O)[C@H]1CC[C@@H]2O1 (stereo partly drawn) [Compound T26] | 30% | 90% | 20% | 100% | 30% | 90% | 0% | 70% | 0% | 70% | 0% | 70% |
| Cc1ccc(-c2cc(C)c(C3C(=O)[C@@H]4[C@H](C3=O)[C@H]3CC[C@@H]4O3)c(C)c2)cc1 (stereo partly drawn) [Compound T27] | 70% | 60% | 40% | 70% | 70% | 70% | 30% | 40% | 30% | 40% | 0% | 60% |
| CCc1ccc(-c2ccc(Cl)cc2C)cc1C1=C(O)[C@H]2[C@@H](C1=O)[C@]1(C)CC[C@@]2(C)O1 [Compound T28] | 50% | 70% | 90% | 100% | 90% | 100% | 40% | 30% | 30% | 20% | 0% | 0% |
| CCc1ccc(-c2ccc(Cl)c(Cl)c2)cc1C1=C(O)[C@H]2[C@@H](C1=O)[C@]1(C)CC[C@@]2(C)O1 [Compound T29] | 50% | 100% | 90% | 100% | 90% | 100% | 30% | 40% | 0% | 50% | 10% | 0% |
| CCc1ccc(-c2ccc(Cl)c(C(F)(F)F)c2)cc1C1=C(O)[C@H]2[C@@H](C1=O)[C@]1(C)CC[C@@]2(C)O1 [Compound T31] | 40% | 100% | 80% | 100% | 90% | 100% | 20% | 30% | 50% | 10% | 0% | 60% |
| CCc1ccc(-c2ccc(Cl)s2)cc1C1=C(O)[C@H]2[C@@H](C1=O)[C@]1(C)CC[C@@]2(C)O1 [Compound T32] | 60% | 70% | 70% | 70% | 70% | 100% | 60% | 30% | 0% | 100% | 30% | 70% |
| CCc1ccc(-c2ccc(Cl)c(F)c2)cc1C1=C(O)[C@H]2[C@@H](C1=O)[C@]1(C)CC[C@@]2(C)O1 [Compound T33] | 80% | 100% | 100% | 100% | 100% | 100% | 50% | 70% | 0% | 80% | 20% | 70% |
| CCc1ccc(-c2ccc(Cl)c(F)c2Cl)cc1C1=C(O)[C@H]2[C@@H](C1=O)[C@]1(C)CC[C@@]2(C)O1 [Compound T37] | 70% | 100% | 100% | 100% | 90% | 100% | 50% | 100% | 30% | 80% | 20% | 80% |
| CCc1ccc(-c2ccc(Cl)c(F)c2F)cc1C1=C(O)[C@H]2[C@@H](C1=O)[C@]1(C)CC[C@@]2(C)O1 [Compound T38] | 50% | 100% | 90% | 80% | 100% | 100% | 50% | 30% | 30% | 90% | 0% | 100% |
| CCc1ccc(-c2ccc(Cl)c(Cl)c2F)cc1C1=C(O)[C@H]2[C@@H](C1=O)[C@]1(C)CC[C@@]2(C)O1 [Compound T40] | 30% | 100% | 40% | 80% | 60% | 100% | 0% | 100% | 10% | 70% | 10% | 50% |
